From US11149067B2, “Tailored cyclodepsipeptides as potent non-covalent serine protease inhibitors” (UNIVERSITÄT DUISBURG-ESSEN, priority 2017, dated 2021)

How the values were obtained:
human HTRA3 = human HTRA3 (Homo sapiens (Human), UniProt P83110); assay: Chromogenic enzyme activity assay, HTRA3
human HTRA1 = human HTRA1 (Homo sapiens (Human), UniProt Q92743); assay: Chromogenic enzyme activity assay, HTRA1
bovine pancreas trypsin = bovine pancreas trypsin (Bos taurus (Bovine), UniProt P00760); assay: Chromogenic enzyme activity assay, trypsin; format: biochemical; conditions: Table 2
[1] = target: human pancreas chymotrypsin; assay: Chromogenic enzyme activity assay, chymotrypsin; format: biochemical; conditions: for Ki: human pancreas chymotrypsin, Table 2
human HTRA2 = human HTRA2 (Homo sapiens (Human), UniProt O43464); assay: Chromogenic enzyme activity assay, HTRA2; conditions: for fold gain in HTRA2 potency relative to Ahp1: compared with Ahp1
[2] = target: human neutrophil elastase (Homo sapiens (Human), UniProt P08246); assay: Chromogenic enzyme activity assay, elastase; format: biochemical; conditions: for Ki: human neutrophil elastase
[3] = test system: human bone marrow-derived stromal cells (hBMSCs); assay: HTRA1-mediated hBMSC osteogenesis, matrix mineralization by Alizarin Red S staining; format: cell-based; conditions: 10 μM compound, with HTRA1 or inactive HTRA1 S328A
Description: Human BMSCs (hBMSCs) (Lonza Verviers, Belgium) were maintained in normal growth medium consisting of Dulbecco's modified eagle medium (DMEM-low glucose, with Glutamax) (Thermo Fisher Scientific, Reinach, Switzerland), supplemented with 10% fetal bovine serum (FBS) (Bioswisstec, Schaffhausen, Switzerland) and penicillin (50 units mL^−1) and streptomycin (50 μg mL^−1), and used between passage 2 and 6. The osteogenic differentiation of hBMSCs was performed as previously described in the art. Briefly, hBMSCs were seeded at 10′000 cells cm-2 in 24-well cell culture plates, and incubated for up to 14 days in osteogenic medium consisting of normal growth medium supplemented with ascorbic acid (50 μM), β-glycerophosphate (10 mM) and dexamethasone (100 nM) (all from Sigma-Aldrich, Buchs, Switzerland). Cells were replenished with fresh medium every 3-4 days. […] Mineralized matrix deposition by hBMSC-derived bone forming cells was visualized using Alizarin Red S, and the amount of staining quantified by determining the absorption at 570 nm using a multiplate reader (Infinite M200, Tecan) following extraction with 10% cetylpyridinium chloride (Sigma-Aldrich).

Chain of bovine pancreas trypsin (P00760 24-246): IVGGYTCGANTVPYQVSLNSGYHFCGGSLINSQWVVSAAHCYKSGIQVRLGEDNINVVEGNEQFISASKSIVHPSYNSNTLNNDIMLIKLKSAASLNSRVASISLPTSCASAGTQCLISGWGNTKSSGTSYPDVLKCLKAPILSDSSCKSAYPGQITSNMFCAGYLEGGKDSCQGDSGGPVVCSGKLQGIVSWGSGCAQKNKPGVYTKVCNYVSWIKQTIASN
Chain of human neutrophil elastase (P08246 30-267): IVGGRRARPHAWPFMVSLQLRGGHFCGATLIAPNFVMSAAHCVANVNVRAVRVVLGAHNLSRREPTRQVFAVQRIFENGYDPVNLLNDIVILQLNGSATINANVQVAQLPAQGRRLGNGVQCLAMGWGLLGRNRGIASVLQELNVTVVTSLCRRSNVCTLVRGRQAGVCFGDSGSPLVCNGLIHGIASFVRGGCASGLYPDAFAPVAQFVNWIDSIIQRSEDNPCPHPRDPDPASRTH
Chain of human HTRA3 (P83110 111-436): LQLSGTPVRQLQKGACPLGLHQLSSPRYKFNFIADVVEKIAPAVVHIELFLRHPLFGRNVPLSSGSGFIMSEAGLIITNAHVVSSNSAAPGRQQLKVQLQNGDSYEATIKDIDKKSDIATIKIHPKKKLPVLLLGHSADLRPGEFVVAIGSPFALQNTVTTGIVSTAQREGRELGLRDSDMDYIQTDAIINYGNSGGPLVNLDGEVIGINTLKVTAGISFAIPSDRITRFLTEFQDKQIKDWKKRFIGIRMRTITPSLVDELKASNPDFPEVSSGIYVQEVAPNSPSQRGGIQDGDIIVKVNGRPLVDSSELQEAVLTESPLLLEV
Chain of human HTRA2 (O43464 134-458): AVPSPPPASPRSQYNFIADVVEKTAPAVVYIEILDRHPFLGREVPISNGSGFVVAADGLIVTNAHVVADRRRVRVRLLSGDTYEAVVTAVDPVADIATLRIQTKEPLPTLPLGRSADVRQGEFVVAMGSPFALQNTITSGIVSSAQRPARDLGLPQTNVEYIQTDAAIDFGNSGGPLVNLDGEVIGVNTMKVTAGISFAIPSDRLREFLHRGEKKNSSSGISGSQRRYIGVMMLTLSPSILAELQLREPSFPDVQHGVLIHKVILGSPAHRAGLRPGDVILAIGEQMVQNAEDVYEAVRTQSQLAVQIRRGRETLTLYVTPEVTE
Chain of human HTRA1 (Q92743 158-480): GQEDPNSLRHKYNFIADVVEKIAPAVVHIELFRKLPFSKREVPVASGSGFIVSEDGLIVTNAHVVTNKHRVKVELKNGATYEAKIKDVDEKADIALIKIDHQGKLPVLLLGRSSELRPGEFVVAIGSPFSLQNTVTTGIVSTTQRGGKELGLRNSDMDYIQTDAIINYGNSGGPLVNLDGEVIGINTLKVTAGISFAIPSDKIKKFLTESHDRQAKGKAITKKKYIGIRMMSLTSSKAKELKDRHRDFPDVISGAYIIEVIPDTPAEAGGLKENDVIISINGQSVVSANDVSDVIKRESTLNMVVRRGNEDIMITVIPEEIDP

| SMILES | HTRA3 inhibition, in words (human HTRA3) | HTRA1 inhibition, in words (human HTRA1) | Ki (bovine pancreas trypsin) [µM] | Ki [1] [µM] | HTRA2 inhibition, in words (human HTRA2) | elastase inhibition, in words [2] | chymotrypsin inhibition, in words [1] | Ki (human HTRA3) [µM] | Ki (human HTRA2) [µM] | Ki (human HTRA1) [µM] | Ki ([2]; Table 2) [µM] | fold gain in HTRA2 potency relative to Ahp1 (human HTRA2) | Ki ([2]; Table 3) [µM] | inhibition of HTRA1-mediated hBMSC osteogenesis (matrix mineralization) [3] |
| --- | --- | --- | --- | --- | --- | --- | --- | --- | --- | --- | --- | --- | --- | --- |
| CC(C)C[C@H]1C(=O)N(C)[C@@H](Cc2ccccc2)C(=O)N[C@@H](C(C)C)C(=O)O[C@H](C)[C@H](NC(=O)[C@H](C)NC(=O)[C@H](C)NC(=O)OCc2ccccc2)C(=O)N[C@@H](Cc2ccccc2)C(=O)N[C@H]2CC[C@@H](O)N1C2=O [Ahp2] | significantly reduced | significantly reduced | – | 0.37 ± 0.08 | significantly reduced | significantly reduced | enhanced chymotrypsin inhibition | – | – | – | – | – | – | – |
| CC(C)C[C@H]1C(=O)N(C)[C@@H](Cc2ccccc2)C(=O)N[C@@H](C(C)C)C(=O)O[C@H](c2ccccc2)[C@H](NC(=O)[C@H](C)NC(=O)[C@H](C)NC(=O)OCc2ccccc2)C(=O)N[C@@H](C(C)C)C(=O)N[C@H]2CC[C@@H](O)N1C2=O [Ahp3] | inhibited | – | > 50 | > 50 | – | – | – | 3.1 ± 0.6 | 0.27 ± 0.07 | > 50 | 0.21 ± 0.06 | – | – | – |
| CC(C)C[C@H]1C(=O)N(C)[C@@H](Cc2ccccc2)C(=O)N[C@@H](Cc2ccccc2)C(=O)O[C@H](C)[C@H](NC(=O)[C@H](C)NC(=O)[C@H](C)NC(=O)OCc2ccccc2)C(=O)N[C@@H](C(C)C)C(=O)N[C@H]2CC[C@@H](O)N1C2=O [Ahp8] | inhibited | – | > 50 | > 50 | – | – | – | 9.5 ± 0.9 | 2.3 ± 0.2 | > 50 | 0.32 ± 0.05 | – | – | – |
| CC(C)C[C@@H]1NC(=O)[C@@H](NC(=O)[C@H](C)NC(=O)[C@H](C)NC(=O)OCc2ccccc2)[C@@H](C)OC(=O)[C@H](C(C)C)NC(=O)[C@H](Cc2ccccc2)N(C)C(=O)[C@H](CC(C)C)N2C(=O)[C@H](CC[C@H]2O)NC1=O [Ahp9] | – | – | – | – | slightly better HTRA2 inhibitory properties than Ahp1 | – | – | – | – | – | – | – | – | – |
| CC(C)C[C@H]1C(=O)N(C)[C@@H](Cc2ccccc2)C(=O)N[C@@H](C(C)C)C(=O)O[C@H](C(C)C)[C@H](NC(=O)[C@H](C)NC(=O)CCc2ccccc2)C(=O)N[C@@H](C(C)C)C(=O)N[C@H]2CC[C@@H](O)N1C2=O [Ahp11] | moderate inhibition | – | – | – | moderate inhibition | – | – | – | – | – | – | – | – | – |
| CC(C)C[C@H]1C(=O)N(C)[C@@H](Cc2ccccc2)C(=O)N[C@@H](C(C)C)C(=O)O[C@H](C)[C@H](NC(=O)[C@H](C)NC(=O)[C@H](C)NC(=O)OCc2ccccc2)C(=O)N[C@@H](C)C(=O)N[C@H]2CC[C@@H](O)N1C2=O [Ahp13] | enhanced inhibitory activity | enhanced inhibitory activity | – | – | enhanced inhibitory activity | – | – | – | – | – | – | – | – | – |
| CC[C@@H]1NC(=O)[C@@H](NC(=O)[C@H](C)NC(=O)[C@H](C)NC(=O)OCc2ccccc2)[C@@H](C)OC(=O)[C@H](C(C)C)NC(=O)[C@H](Cc2ccccc2)N(C)C(=O)[C@H](CC(C)C)N2C(=O)[C@H](CC[C@H]2O)NC1=O [Ahp14] | enhanced inhibitory activity | enhanced inhibitory activity | – | – | enhanced inhibitory activity | – | – | – | – | – | – | – | – | – |

More lines, main results first:

| HTRA3 inhibition, in words (human HTRA3) | HTRA1 inhibition, in words (human HTRA1) | Ki (bovine pancreas trypsin) [µM] | Ki [1] [µM] | HTRA2 inhibition, in words (human HTRA2) | elastase inhibition, in words [2] | chymotrypsin inhibition, in words [1] | Ki (human HTRA3) [µM] | Ki (human HTRA2) [µM] | Ki (human HTRA1) [µM] | Ki ([2]; Table 2) [µM] | fold gain in HTRA2 potency relative to Ahp1 (human HTRA2) | Ki ([2]; Table 3) [µM] | SMILES | inhibition of HTRA1-mediated hBMSC osteogenesis (matrix mineralization) [3] |
| --- | --- | --- | --- | --- | --- | --- | --- | --- | --- | --- | --- | --- | --- | --- |
| inhibited | inhibited | > 50 | > 50 | – | – | – | – | – | – | – | – | – | CC(C)C[C@H]1C(=O)N(C)[C@@H](Cc2ccccc2)C(=O)N[C@@H](C(C)C)C(=O)O[C@H](C)[C@H](NC(=O)[C@H](C)NC(=O)[C@H](C)NC(=O)OCc2ccccc2)C(=O)N[C@@H](C(C)C)C(=O)N[C@H]2CC[C@@H](O)N1C2=O [Ahp1] | – |
| – | – | > 50 | > 50 | sub-μM inhibition potencies | – | – | > 50 | 0.49 ± 0.11 | > 50 | 0.33 ± 0.06 | more than ten-fold | – | CC(C)C[C@H]1C(=O)N(C)[C@@H](Cc2ccccc2)C(=O)N[C@@H](C(C)C)C(=O)O[C@H](C)[C@H](NC(=O)[C@H](Cc2ccccc2)NC(=O)[C@H](C)NC(=O)OCc2ccccc2)C(=O)N[C@@H](C(C)C)C(=O)N[C@H]2CC[C@@H](O)N1C2=O [Ahp4] | – |
| – | inhibited | > 50 | > 50 | – | – | – | > 50 | 2.1 ± 0.3 | 10.3 ± 3 | 8 ± 1.8 | – | – | CC(C)[C@@H]1NC(=O)[C@@H](NC(=O)[C@H](C)NC(=O)[C@H](C)NC(=O)OCc2ccccc2)[C@@H](C)OC(=O)[C@H](C(C)C)NC(=O)[C@H](Cc2ccccc2)N(C)C(=O)[C@H](Cc2ccccc2)N2C(=O)[C@H](CC[C@H]2O)NC1=O [Ahp6] | – |
| – | – | > 50 | > 50 | – | low μM or even sub-μM | – | – | – | – | – | – | – | CC(C)C[C@H]1C(=O)N(C)[C@@H](C)C(=O)N[C@@H](C(C)C)C(=O)O[C@H](C)[C@H](NC(=O)[C@H](C)NC(=O)[C@H](C)NC(=O)OCc2ccccc2)C(=O)N[C@@H](C(C)C)C(=O)N[C@H]2CC[C@@H](O)N1C2=O [Ahp7] | – |
| – | lowered the Ki | > 50 | > 50 | sub-μM Ki | lowered the Ki | – | – | – | – | – | 15 fold | – | CC(C)C[C@H]1C(=O)N(C)[C@@H](Cc2ccccc2)C(=O)N[C@@H](C(C)C)C(=O)O[C@H](C(C)C)[C@H](NC(=O)[C@H](C)NC(=O)[C@H](C)NC(=O)OCc2ccccc2)C(=O)N[C@@H](C(C)C)C(=O)N[C@H]2CC[C@@H](O)N1C2=O [Ahp10] | significantly inhibited |
| enhanced inhibitory activity | enhanced inhibitory activity | – | – | enhanced inhibitory activity | – | – | 0.74 | 1.11 | 1.24 | – | – | 1.93 | CC(C)C[C@H]1C(=O)N(C)[C@@H](Cc2ccccc2)C(=O)N[C@@H](C(C)C)C(=O)O[C@H](C)[C@H](NC(=O)[C@H](C)NC(=O)[C@H](C)NC(=O)OCc2ccccc2)C(=O)N[C@@H](C2CC2)C(=O)N[C@H]2CC[C@@H](O)N1C2=O [Ahp19] | – |
| – | – | – | – | – | – | – | 8.3 | > 50 | > 50 | – | – | 4.32 | CC(C)C[C@H]1C(=O)N(C)[C@@H](Cc2ccccc2)C(=O)N[C@@H](C(C)C)C(=O)O[C@H](C)[C@H](NC(=O)[C@H](C)NC(=O)[C@H](C)NC(=O)OCc2ccccc2)C(=O)N[C@@H](C(C)(C)C)C(=O)N[C@H]2CC[C@@H](O)N1C2=O [Ahp20] | – |
